The supplement of paper PMC10307832

Experiments:
Assay in all cases: relative viability (nuclei count vs DMSO), 5 days (fraction); higher = more cells survive
[1] = compound: C=CCn1c(=O)c2cnc(Nc3ccc(N4CCN(C)CC4)cc3)nc2n1-c1cccc(C(C)(C)O)n1 [Adavosertib] + Cc1cc(Nc2cc(N3CCN(C)CC3)nc(Sc3ccc(NC(=O)C4CC4)cc3)n2)n[nH]1 [Tozasertib] (partner 0.1 µM)
Summary of the method: (§1)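 Relative viability equals treated-well nuclei counts divided by vehicle-well nuclei counts. Counts came from 4× images of lung cancer cell lines grown in 1536-well plates for 5 days after pin-tool dosing on the day after seeding. Dosing used one drug alone or a fixed anchor-drug dose plus five library-drug doses (not always all listed) in √10 steps, and values are medians of duplicate plates.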

[2] = compound: COc1nc(N)nc2c1ncn2[C@@H]1O[C@H](CO)[C@@H](O)[C@@H]1O [Nelarabine] + CC1(C)CCC(c2ccc(Cl)cc2)=C(CN2CCN(c3ccc(C(=O)NS(=O)(=O)c4ccc(N[C@H](CCN5CCOCC5)CSc5ccccc5)c(S(=O)(=O)C(F)(F)F)c4)cc3)CC2)C1 [Navitoclax] (partner 0.5 µM)
Summary of the method: as §1

[3] = compound: COc1nc(N)nc2c1ncn2[C@@H]1O[C@H](CO)[C@@H](O)[C@@H]1O [Nelarabine] + C[C@@H](Oc1cc(-c2cnn(C3CCNCC3)c2)cnc1N)c1c(Cl)ccc(F)c1Cl [Crizotinib] (partner 1 µM)
Summary of the method: as §1

[4] = compound: COc1nc(N)nc2c1ncn2[C@@H]1O[C@H](CO)[C@@H](O)[C@@H]1O [Nelarabine] + Nc1nc2[nH]cc(CCc3ccc(C(=O)N[C@@H](CCC(=O)O)C(=O)O)cc3)c2c(=O)[nH]1 [Pemetrexed] (partner 0.2 µM)
Summary of the method: as §1

Cell Line	relative viability ([1]; first compound 0.01 µM)	relative viability ([1]; first compound 0.03162 µM)	relative viability ([1]; first compound 0.1 µM)	relative viability ([1]; first compound 0.3162 µM)	relative viability ([2]; first compound 0.01 µM)	relative viability ([2]; first compound 0.03162 µM)	relative viability ([2]; first compound 0.1 µM)	relative viability ([2]; first compound 0.3162 µM)	relative viability ([2]; first compound 1 µM)	relative viability ([3]; first compound 0.01 µM)	relative viability ([3]; first compound 0.03162 µM)	relative viability ([3]; first compound 0.1 µM)	relative viability ([3]; first compound 0.3162 µM)	relative viability ([3]; first compound 1 µM)	relative viability ([4]; first compound 0.01 µM)	relative viability ([4]; first compound 0.03162 µM)	relative viability ([4]; first compound 0.1 µM)	relative viability ([4]; first compound 0.3162 µM)	relative viability ([4]; first compound 1 µM)
HCC-366	0.137	0.132	0.145	0.169	1.55	1.03	1.22	1.2	1	0.594	0.222	0.51	1.01	0.618	0.204	0.146	0.202	0.225	0.22
HCC-78	0.589	0.348	0.351	0.464	0.96	0.925	–	0.955	0.901	0.379	0.365	–	0.34	0.338	0.879	0.925	–	0.953	0.886
NCI-H358	0.104	0.0953	0.102	0.0852	–	–	–	–	–	0.58	0.481	0.4	0.573	0.514	0.181	0.227	0.161	0.172	0.328
NCI-H23	0.326	0.321	0.283	0.192	0.804	0.821	0.783	0.854	0.763	0.505	0.485	0.297	0.495	0.515	1.04	0.729	0.771	0.71	0.666
PC-14	0.6	0.566	0.843	0.69	1.09	1.11	1.05	1.05	1.03	0.909	0.89	0.875	0.832	0.868	0.136	0.138	0.125	0.142	0.158
SW 900	–	0.533	0.62	0.538	–	–	–	–	–	–	–	–	–	–	0.53	0.538	0.482	0.526	0.506
NCI-H1650	0.415	0.464	0.563	0.299	1.32	1.36	1.28	1.36	1.23	1.07	0.809	0.999	0.981	0.847	0.531	0.406	0.381	0.432	0.343
H3255	0.63	0.721	0.421	0.559	0.59	0.486	0.625	0.6	0.622	1.04	0.821	0.906	0.881	0.913	0.531	0.571	0.557	0.551	0.571
NCI-H1563	–	–	–	–	–	–	–	–	–	0.815	0.93	0.797	0.845	0.841	0.765	0.811	0.77	0.812	0.787
A549	–	–	–	–	1.56	1.29	1.24	1.17	1.18	0.735	0.666	0.742	0.803	0.671	–	–	–	–	–
UMC-11	0.19	0.201	0.196	0.181	0.291	0.277	0.307	0.306	0.313	0.52	0.499	0.476	0.652	0.495	0.992	0.696	0.94	0.816	0.884
LOU-NH91	0.694	0.69	0.735	0.62	0.786	0.588	0.616	0.632	0.69	0.755	1	0.73	0.739	0.733	0.385	0.35	0.442	0.329	0.381
NCI-H1299	–	–	–	–	1.09	1.06	1.1	1.07	1.08	1.04	1.03	0.963	0.979	0.966	–	–	–	–	–
HCC-44	1.02	0.951	1.24	1.15	1.27	1.09	0.985	1.05	0.966	0.989	0.782	0.783	0.819	0.739	0.642	0.662	0.646	0.69	0.633
NCI-H1437	0.415	0.389	0.433	0.421	1.38	1.16	1.09	1.05	1.03	1.27	0.844	0.912	0.895	0.905	0.344	0.359	0.301	0.39	0.323
HARA	0.125	0.128	0.111	0.0667	1.17	1.08	1.07	1.22	1.06	1.21	1.09	0.909	1.24	1.12	0.233	0.28	0.225	0.288	0.226
EBC-1	–	–	–	–	0.403	0.261	0.375	0.432	0.381	0.157	0.178	0.182	0.235	0.194	–	–	–	–	–
NCI-H2085	0.738	0.788	0.956	0.799	1.08	1.08	1.18	1.18	1.18	0.966	0.618	0.766	0.88	0.965	0.906	0.865	0.93	0.871	0.87
NCI-H322M	0.481	0.453	0.436	0.342	1.39	1.35	1.3	1.27	1.17	0.884	0.88	0.853	0.948	0.837	0.601	0.565	0.631	0.653	0.61
NCI-H1355	0.549	0.553	0.522	0.615	1.1	0.818	0.923	1.01	0.991	1.44	0.879	1.02	1.15	1.08	1.12	1.05	1.02	1.15	1.08
COR-L 105	0.353	0.374	0.385	0.319	0.936	0.956	0.733	0.819	0.795	0.998	0.752	0.678	0.894	0.844	1.11	1.26	1.16	1.15	1.08

Cell Line	relative viability ([1]; first compound 0.01 µM)	relative viability ([1]; first compound 0.03162 µM)	relative viability ([1]; first compound 0.1 µM)	relative viability ([1]; first compound 0.3162 µM)	relative viability ([2]; first compound 0.01 µM)	relative viability ([2]; first compound 0.03162 µM)	relative viability ([2]; first compound 0.1 µM)	relative viability ([2]; first compound 0.3162 µM)	relative viability ([2]; first compound 1 µM)	relative viability ([3]; first compound 0.01 µM)	relative viability ([3]; first compound 0.03162 µM)	relative viability ([3]; first compound 0.1 µM)	relative viability ([3]; first compound 0.3162 µM)	relative viability ([3]; first compound 1 µM)	relative viability ([4]; first compound 0.01 µM)	relative viability ([4]; first compound 0.03162 µM)	relative viability ([4]; first compound 0.1 µM)	relative viability ([4]; first compound 0.3162 µM)	relative viability ([4]; first compound 1 µM)
201T	0.91	0.999	1.01	0.979	1.15	1.18	1.18	1.15	1.16	1.04	0.968	0.84	1.06	1.02	0.378	0.279	0.349	0.417	0.444
NCI-H2342	0.548	0.507	0.55	0.525	–	–	–	–	–	–	–	–	–	–	0.901	0.659	0.681	0.817	0.801
NCI-H838	0.237	0.268	0.328	0.283	1.48	1.13	1.22	1.26	1.25	0.975	0.575	0.766	1.02	0.792	0.268	0.252	0.287	0.278	0.282
NCI-H522	0.522	0.58	0.508	0.581	–	–	–	–	–	–	–	–	–	–	1.1	0.923	1.03	0.999	1.11
CAL-12T	0.394	0.351	0.321	0.18	1.37	1.11	1.31	1.41	1.14	0.517	0.514	0.61	0.806	0.549	1.55	1.19	1.42	1.2	1.22
NCI-H1755	0.649	0.581	0.682	0.535	1.06	0.846	0.555	1.14	1.03	0.941	0.908	0.874	0.969	0.946	0.654	0.377	0.363	0.501	0.451
LCLC-103H	0.5	0.501	0.572	0.451	–	–	–	–	–	1.12	1.03	1.07	1.08	1.02	0.467	0.447	0.464	0.446	0.478
NCI-H1666	0.642	0.568	0.678	0.694	1.08	1.08	0.807	1.07	0.937	1.03	0.679	0.949	0.975	1.03	0.957	0.919	0.872	0.936	0.834
LC-2-ad	0.478	0.419	0.445	0.442	0.619	0.384	0.519	0.434	0.452	0.497	0.404	0.444	0.421	0.447	0.304	0.249	0.267	0.286	0.275
IA-LM	–	–	–	–	1	0.626	0.774	0.754	0.807	1.08	0.674	0.844	0.876	0.791	–	–	–	–	–
Calu-6	–	–	–	–	1.17	–	0.892	0.851	0.909	0.848	0.613	0.879	0.825	0.826	–	–	–	–	–
NCI-H1395	0.757	0.822	0.853	0.733	1.18	1.16	1.28	1.19	1.17	–	–	–	–	–	0.818	0.755	1.21	0.773	0.707
NCI-H1792	–	–	–	–	0.518	–	0.931	0.685	0.396	0.821	–	1.29	1.15	1.03	1.09	0.658	1.58	0.937	0.824
NCI-H1623	0.4	0.447	0.351	0.447	–	–	–	–	–	–	–	–	–	–	–	–	–	–	–
NCI-H1648	0.545	0.613	0.386	0.545	–	–	–	–	–	–	–	–	–	–	–	0.805	–	0.885	0.75
NCI-H1793	0.352	0.386	0.4	0.253	0.46	0.552	0.433	0.47	0.385	–	–	–	–	–	1.04	–	1.07	0.962	0.88
NCI-H727	0.674	0.504	0.546	0.641	0.496	0.384	0.376	0.424	0.377	1.05	1.06	0.765	0.94	0.865	–	–	–	–	–
NCI-H650	0.75	0.774	0.806	0.757	–	–	–	–	–	0.627	0.548	0.613	0.693	0.746	0.986	0.814	0.913	0.971	1.02
NCI-H661	0.353	0.36	0.339	0.349	–	–	–	–	–	–	0.877	0.989	0.973	0.934	0.963	1.07	0.865	0.899	0.899
NCI-H1703	–	–	–	–	1.28	0.936	1.24	1.18	1.18	0.577	0.701	0.78	1.01	0.594	–	–	–	–	–
ABC-1	0.208	0.161	0.166	0.145	–	–	–	–	–	1.07	1.09	0.994	1.14	0.976	–	–	–	–	–
